Source: US9718804B2, “GSK-3 inhibitors” (BRISTOL-MYERS SQUIBB COMPANY, priority 2013, dated 2017)
Where two headings read alike, the source gives them in different places.

Experiments:
GSK3β = GSK3β (Homo sapiens, UniProt P49841); test: GSK3β kinase assay (Caliper LabChip, fluoresceinated peptide substrate); type: biochemical
Procedure, shortened: (§1)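 Kinase reactions ran at room temperature for 20 hours, then were stopped with EDTA. Phosphorylated product and unphosphorylated substrate were separated electrophoretically on a LabChip3000, and IC50s came from non-linear regression over eleven compound concentrations.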

GSK3α = GSK3α (Homo sapiens, UniProt P49840); test: GSK3α kinase assay (Caliper LabChip, fluoresceinated peptide substrate); type: biochemical
Chain of GSK3α (P49840 whole entry, species assumed): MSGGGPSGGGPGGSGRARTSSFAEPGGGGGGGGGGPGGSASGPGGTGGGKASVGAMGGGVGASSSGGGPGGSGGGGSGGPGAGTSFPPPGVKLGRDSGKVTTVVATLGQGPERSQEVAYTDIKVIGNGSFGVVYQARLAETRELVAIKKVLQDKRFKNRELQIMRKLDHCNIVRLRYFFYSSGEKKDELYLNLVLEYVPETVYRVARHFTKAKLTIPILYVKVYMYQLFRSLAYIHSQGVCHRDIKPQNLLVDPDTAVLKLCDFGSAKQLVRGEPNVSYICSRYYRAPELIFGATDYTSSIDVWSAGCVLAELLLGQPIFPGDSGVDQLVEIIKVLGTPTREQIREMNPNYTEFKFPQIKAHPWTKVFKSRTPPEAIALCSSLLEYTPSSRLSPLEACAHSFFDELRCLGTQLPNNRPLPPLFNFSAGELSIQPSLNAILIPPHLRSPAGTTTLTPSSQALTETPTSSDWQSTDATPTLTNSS
Procedure, shortened: as §1

pTau = pTau assay (no method described); type: cell-based
[1] = first value of the cell, 250 pM enzyme, 20 uM ATP, 20 hours at room temperature, read-out: GSK3β/α (nM): GSK3β IC50

Chain of GSK3β (P49841 whole entry, species assumed): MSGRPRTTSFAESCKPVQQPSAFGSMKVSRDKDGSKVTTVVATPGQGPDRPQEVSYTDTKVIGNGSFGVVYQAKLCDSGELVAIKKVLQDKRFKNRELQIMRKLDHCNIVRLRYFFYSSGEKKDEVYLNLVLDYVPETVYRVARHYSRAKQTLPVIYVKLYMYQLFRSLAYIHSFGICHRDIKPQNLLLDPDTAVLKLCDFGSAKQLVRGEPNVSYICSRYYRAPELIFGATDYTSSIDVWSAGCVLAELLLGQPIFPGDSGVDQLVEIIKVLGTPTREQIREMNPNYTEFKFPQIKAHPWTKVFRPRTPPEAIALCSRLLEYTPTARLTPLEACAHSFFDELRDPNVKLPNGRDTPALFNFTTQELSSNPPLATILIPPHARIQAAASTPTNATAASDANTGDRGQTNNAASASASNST

SMILES | IC50 (GSK3β; [1]) [nM] | IC50 (GSK3α) [nM] | IC50 (pTau) [nM] | IC50 (GSK3β) [nM]
CCOc1ccncc1NC(=O)c1ccnc(Nc2ccccn2)c1 [Example 11, N-(4-Ethoxypyridin-3-yl)-2-(pyridin-2-ylamino)isonicotinamide] | 8.9 | 2.8 | 294 | 
CC(O)(c1cc(Cl)ncc1NC(=O)c1ccnc(Nc2ccc(C(F)(F)F)cn2)c1)C1CC1 (stereo not drawn) [Example 98, N-(6-Chloro-4-(1-cyclopropyl-1-hydroxyethyl)pyridin-3-yl)-2-((5-(trifluoromethyl)pyridin-2-yl)amino)isonicotinamide] | 3.7 | 4 | 230 | 
O=C(Nc1cnc(Cl)cc1-c1ccccc1)c1ccnc(Nc2ccc(C(F)(F)F)cn2)c1 [Example 66, N-(6-Chloro-4-phenylpyridin-3-yl)-2-((5-(trifluoromethyl)pyridin-2-yl)amino)isonicotinamide] | 61 | 29 | 5850 | 
O=C(Nc1cncnc1N1CCOCC1)c1ccnc(Nc2ccc(C(F)(F)F)cn2)c1 [Example 195, N-(4-Morpholinopyrimidin-5-yl)-2-((5-(trifluoromethyl)pyridin-2-yl)amino)isonicotinamide] | 17 | 7.9 | 710 | 
O=C(Nc1cnc(F)cc1C1(C2CC2)OCCO1)c1ccnc(Nc2ccc(C(F)(F)F)cn2)c1 [Example 94, N-(4-(2-Cyclopropyl-1,3-dioxolan-2-yl)-6-fluoropyridin-3-yl)-2-((5-(trifluoromethyl)pyridin-2-yl)amino)isonicotinamide] | 0.06 | 0.03 | 1.2 | 
Cn1ncc(NC(=O)c2ccnc(Nc3ccc(C(F)(F)F)cn3)c2)c1C1(C)OCCO1 [Example 207, N-(1-Methyl-5-(2-methyl-1,3-dioxolan-2-yl)-1H-pyrazol-4-yl)-2-((5-(trifluoromethyl)pyridin-2-yl)amino)isonicotinamide] | 0.09 | 0.1 | 1.4 | 
Cc1ccnc(Nc2cc(C(=O)Nc3cncc(-c4ccccc4F)c3)ccn2)c1 [Example 132, N-(5-(2-Fluorophenyl)pyridin-3-yl)-2-((4-methylpyridin-2-yl)amino)isonicotinamide] |  | 6.2 | 1900 | 9
O=C(Nc1cnccn1)c1ccnc(Nc2ccc(C(F)(F)F)cn2)c1 [Example 189, N-(Pyrazin-2-yl)-2-((5-(trifluoromethyl)pyridin-2-yl)amino)isonicotinamide] | 11 | 4.3 | 1030 | 
O=C(Nc1cnncc1Br)c1ccnc(Nc2ccc(C(F)(F)F)cn2)c1 [Example 197, N-(5-Bromopyridazin-4-yl)-2-((5-(trifluoromethyl)pyridin-2-yl)amino)isonicotinamide] | 70 | 22 | 3500 | 
CC[C@@]1(c2cc(Cl)ncc2NC(=O)c2ccnc(Nc3ccc(C(F)(F)F)cn3)c2)OC[C@@H](C)O1 [Example 90, N-(6-Chloro-4-((2R,4R)-2-ethyl-4-methyl-1,3-dioxolan-2-yl)pyridin-3-yl)-2-((5-(trifluoromethyl)pyridin-2-yl)amino)isonicotinamide] | 2 | 0.94 | 150 | 
CC(O)(c1cnncc1NC(=O)c1ccnc(Nc2ccc(C(F)(F)F)cn2)c1)C1CC1 (stereo not drawn) [Example 203, N-(5-(1-Cyclopropyl-1-hydroxyethyl)pyridazin-4-yl)-2-((5-(trifluoromethyl)pyridin-2-yl)amino)isonicotinamide] | 1.2 | 0.94 | 10000 | 
CC(C)(C)Sc1ccncc1NC(=O)c1ccnc(Nc2ccc(C(F)(F)F)cn2)c1 [Example 174, N-(4-(tert-Butylthio)pyridin-3-yl)-2-((5-(trifluoromethyl)pyridin-2-yl)amino)isonicotinamide] | 0.14 | 0.08 | 27 | 
O=C(Nc1cnc(Cl)cc1C1(O)CCOCC1)c1ccnc(Nc2ccc(C(F)(F)F)cn2)c1 [Example 74, N-(6-Chloro-4-(4-hydroxytetrahydro-2H-pyran-4-yl)pyridin-3-yl)-2-((5-(trifluoromethyl)pyridin-2-yl)amino)isonicotinamide] | 3.4 | 2.5 | 180 | 
C[C@@H]1CO[C@](c2cc(Cl)ncc2NC(=O)c2ccnc(Nc3ccc(C(F)(F)F)cn3)c2)(C2CC2)O1 [Example 96, N-(6-Chloro-4-((2R,4R)-2-cyclopropyl-4-methyl-1,3-dioxolan-2-yl)pyridin-3-yl)-2-((5-(trifluoromethyl)pyridin-2-yl)amino)isonicotinamide] | 0.29 | 0.16 | 39 | 
O=C(Nc1cncnc1OCC(F)(F)F)c1ccnc(Nc2ccc(C(F)(F)F)cn2)c1 [Example 194, N-(4-(2,2,2-Trifluoroethoxy)pyrimidin-5-yl)-2-((5-(trifluoromethyl)pyridin-2-yl)amino)isonicotinamide] | 3.2 | 1.6 | 140 | 
O=C(Nc1cnccc1OCC(F)(F)F)c1ccnc(Nc2ccc(C(F)(F)F)cn2)c1F [Example 169, 3-Fluoro-N-(4-(2,2,2-trifluoroethoxy)pyridin-3-yl)-2-((5-(trifluoromethyl)pyridin-2-yl)amino)isonicotinamide] | 28 | 10 | 3900 | 
O=C(Nc1cnccc1-c1ccccc1)c1ccnc(Nc2ccc(F)cn2)c1 [Example 8, 2-((5-Fluoropyridin-2-yl)amino)-N-(4-phenylpyridin-3-yl)isonicotinamide] | 4.1 | 1.9 | 132 | 
CC1(c2cc(F)ncc2NC(=O)c2ccnc(Nc3ccc(C(F)(F)F)cn3)c2)OCCO1 [Example 82, N-(6-Fluoro-4-(2-methyl-1,3-dioxolan-2-yl)pyridin-3-yl)-2-((5-(trifluoromethyl)pyridin-2-yl)amino)isonicotinamide] | 7.1 | 1.9 | 230 | 
O=C(Nc1cn[nH]c1-c1ccccc1)c1ccnc(Nc2ccc(C(F)(F)F)cn2)c1 [Example 205, N-(5-Phenyl-1H-pyrazol-4-yl)-2-((5-(trifluoromethyl)pyridin-2-yl)amino)isonicotinamide] | 28 | 20 | 10000 | 
O=C(Nc1cnccc1C1(F)COC1)c1ccnc(Nc2ccc(C(F)(F)F)cn2)c1 [Example 45, N-(4-(3-Fluorooxetan-3-yl)pyridin-3-yl)-2-((5-(trifluoromethyl)pyridin-2-yl)amino)isonicotinamide] | 17 | 11 | 150 | 
O=C(Nc1cnccc1OCCN1CCOCC1)c1ccnc(Nc2ccc(C(F)(F)F)cn2)c1 [Example 47, N-(4-(2-Morpholinoethoxy)pyridin-3-yl)-2-((5-(trifluoromethyl)pyridin-2-yl)amino)isonicotinamide] | 18 | 5.6 | 420 | 
O=C(Nc1cnccc1-c1ccccc1)c1ccnc(Nc2cccc(C(F)(F)F)n2)c1 [Example 2, N-(4-Phenylpyridin-3-yl)-2-((6-(trifluoromethyl)pyridin-2-yl)amino)isonicotinamide] | 6.8 | 7.3 | 574 | 
CC[C@@]1(c2cc(Cl)ncc2NC(=O)c2ccnc(Nc3ccc(C(F)(F)F)cn3)c2)OC[C@H](C)O1 [Example 89, N-(6-Chloro-4-((2R,4S)-2-ethyl-4-methyl-1,3-dioxolan-2-yl)pyridin-3-yl)-2-((5-(trifluoromethyl)pyridin-2-yl)amino)isonicotinamide] | 1.6 | 1.7 | 340 | 
CCOc1ccncc1NC(=O)c1ccnc(Nc2nccc3ccccc23)c1 [Example 12, N-(4-Ethoxypyridin-3-yl)-2-(isoquinolin-1-ylamino)isonicotinamide] | 5.9 | 35 | 5400 | 
CC1(C)CN(c2ccncc2NC(=O)c2ccnc(Nc3ccc(C(F)(F)F)cn3)c2)CCO1 [Example 22, N-(4-(2,2-Dimethylmorpholino)pyridin-3-yl)-2-((5-(trifluoromethyl)pyridin-2-yl)amino)isonicotinamide] | 0.48 | 0.31 | 18 | 
Cc1ccc(Nc2cc(C(=O)Nc3cncc(-c4ccccc4F)c3)ccn2)nc1C [Example 143, 2-((5,6-Dimethylpyridin-2-yl)amino)-N-(5-(2-fluorophenyl)pyridin-3-yl)isonicotinamide] |  | 6 | 2800 | 8.7
O=C(Nc1ccnnc1)c1ccnc(Nc2ccc(C(F)(F)F)cn2)c1 [Example 196, N-(Pyridazin-4-yl)-2-((5-(trifluoromethyl)pyridin-2-yl)amino)isonicotinamide] | 80 | 25 | 7400 | 
CCC1(c2cc(Cl)ncc2NC(=O)c2ccnc(Nc3ccc(F)cn3)c2)OCCO1 [Example 113, N-(6-Chloro-4-(2-ethyl-1,3-dioxolan-2-yl)pyridin-3-yl)-2-((5-fluoropyridin-2-yl)amino)isonicotinamide] | 1.7 | 0.04 | 14 | 
O=C(Nc1cnc(Cl)cc1C(O)C1CC1)c1ccnc(Nc2ccc(C(F)(F)F)cn2)c1 (stereo not drawn) [Example 93, N-(6-Chloro-4-(cyclopropyl(hydroxy)methyl)pyridin-3-yl)-2-((5-(trifluoromethyl)pyridin-2-yl)amino)isonicotinamide] | 2.6 | 0.78 | 110 | 
O=C(Nc1cncc(-c2ccccc2Cl)c1)c1ccnc(Nc2ccc(C(F)(F)F)cn2)c1 [Example 128, N-(5-(2-Chlorophenyl)pyridin-3-yl)-2-((5-(trifluoromethyl)pyridin-2-yl)amino)isonicotinamide] | 12 | 16 | 2180 | 
